Results taken from patent US11384055B2 (BIOMARIN PHARMACEUTICAL INC., priority 2017, dated 2022).

These compounds were tested against T1, Human GO (Homo sapiens, UniProt Q9UJM8) (assay: GO enzymatic assay (coupled fluorescence/HRP assay, glycolate substrate)). Details: Table 1; read-out: Range (range of IC50 values calculated from the enzymatic assays).
T1 construct: purchased Novus Biologicals NBP1-72412
T1 sequence (Q9UJM8 1-370): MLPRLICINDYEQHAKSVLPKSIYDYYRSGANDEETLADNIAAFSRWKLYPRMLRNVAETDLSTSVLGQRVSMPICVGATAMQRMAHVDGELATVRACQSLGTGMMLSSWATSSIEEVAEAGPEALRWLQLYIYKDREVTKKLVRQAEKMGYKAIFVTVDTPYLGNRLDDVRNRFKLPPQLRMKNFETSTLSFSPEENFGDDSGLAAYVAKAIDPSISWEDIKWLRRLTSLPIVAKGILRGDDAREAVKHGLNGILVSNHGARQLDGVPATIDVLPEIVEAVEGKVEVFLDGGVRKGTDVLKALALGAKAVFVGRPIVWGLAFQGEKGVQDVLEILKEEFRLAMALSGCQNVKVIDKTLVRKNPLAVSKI
Type: biochemical
Method: Assay 1: GO Enzymatic Assay
GO was incubated with its substrate, glycolate, in 50 mM potassium phosphate buffer, pH 7. […] The enzyme was optimized and the kinetics was determined.
Compound inhibition was determined by adding various concentrations of inhibitors in the GO enzyme assay. The IC50 value for each measured compound was generated from sigmoidal dose-response (variable slope) curves with GraphPad Prism software (GraphPad Software, Inc., San Diego, Calif.) using the percent inhibition of GO activity relative to DMSO control.

How did the IC50 turn out when O=C(O)c1[nH]nnc1Sc1nc(-c2ccc(Cl)c(Cl)c2)cs1 [Compound 2, 4-((4-(3,4-dichlorophenyl)thiazol-2-yl)thio)-1H-1,2,3-triazole-5-carboxylic acid] was run?
Its IC50 is < 100 nM.

Which IC50 does the source give for O=C(O)c1[nH]nnc1Sc1ncc(-c2ccc(Cl)c(Cl)c2)s1 [Compound 3, 4-((5-(3,4-dichlorophenyl)thiazol-2-yl)thio)-1H-1,2,3-triazole-5-carboxylic acid] here?
Its IC50 is < 100 nM.

With O=C(O)c1[nH]nnc1Sc1ccc(-c2ccc(Cl)cc2)cc1 [Compound 5, 4-((4′-chloro-[1,1′-biphenyl]-4-yl)thio)-1H-1,2,3-triazole-5-carboxylic acid] as the compound, how does the IC50 read?
Its IC50 is < 100 nM.

With CN1CCN(c2cccc(Sc3[nH]nnc3C(=O)O)c2)CC1 [Compound 6, 5-((3-(4-methylpiperazin-1-yl)phenyl)thio)-1H-1,2,3-triazole-4-carboxylic acid 2,2,2-trifluoroacetate] as the compound, how does the IC50 read?
The IC50 was > 10000 nM.

How did the IC50 turn out when O=C(O)c1[nH]nnc1Sc1ccc(N2CCCCC2)cc1 [Compound 7, 4-((4-(piperidin-1-yl)phenyl)thio)-1H-1,2,3-triazole-5-carboxylic acid 2,2,2-trifluoroacetate] was run?
The IC50 was 100 to 1000 nM.

How did the IC50 turn out when O=C(O)c1[nH]nnc1Sc1csc(-c2ccc(Cl)c(Cl)c2)n1 [Compound 8, 4-((2-(3,4-dichlorophenyl)thiazol-4-yl)thio)-1H-1,2,3-triazole-5-carboxylic acid] was run?
The IC50 was < 100 nM.

With O=C(OC1CCC1)c1[nH]nnc1Sc1nc(-c2ccc(Cl)c(Cl)c2)cs1 [Compound 9, cyclobutyl 4-((4-(3,4-dichlorophenyl)thiazol-2-yl)thio)-1H-1,2,3-triazole-5-carboxylate] as the compound, how does the IC50 read?
Its IC50 is > 10000 nM.

How did the IC50 turn out when CN1CCN(c2ccc(Sc3nn[nH]c3C(=O)O)cc2)CC1 [Compound 10, 4-((4-(4-methylpiperazin-1-yl)phenyl)thio)-1H-1,2,3-triazole-5-carboxylic acid] was run?
Its IC50 is 1000 to 10000 nM.

CC(C)OC(=O)c1[nH]nnc1Sc1nc(-c2ccc(Cl)c(Cl)c2)cs1 [Compound 11, isopropyl 4-((4-(3,4-dichlorophenyl)thiazol-2-yl)thio)-1H-1,2,3-triazole-5-carboxylate] was tested. Which IC50 did it give?
The IC50 was > 10000 nM.

O=C(O)c1[nH]nnc1Sc1ccc(-c2ccc(Br)cc2)cn1 [Compound 12, 4-((5-(4-bromophenyl)pyridin-2-yl)thio)-1H-1,2,3-triazole-5-carboxylic acid 2,2,2-trifluoroacetate] was tested. Which IC50 did it give?
The IC50 was 100 to 1000 nM.

With O=C(O)c1[nH]nnc1Sc1nnc(-c2ccc(Cl)c(Cl)c2)[nH]1 [Compound 13, 4-((5-(3,4-dichlorophenyl)-4H-1,2,4-triazol-3-yl)thio)-1H-1,2,3-triazole-5-carboxylic acid] as the compound, how does the IC50 read?
The IC50 was 100 to 1000 nM.

COc1ccc(-c2ccc(Sc3nn[nH]c3C(=O)O)cc2)cc1 [Compound 14, 4-((4′-methoxy-[1,1′-biphenyl]-4-yl)thio)-1H-1,2,3-triazole-5-carboxylic acid] was tested. Which IC50 did it give?
Its IC50 is < 100 nM.

Which IC50 does the source give for COc1ccc(-c2csc(Sc3nn[nH]c3C(=O)O)n2)cc1Cl [Compound 15, 4-((4-(3-chloro-4-methoxyphenyl)thiazol-2-yl)thio)-1H-1,2,3-triazole-5-carboxylic acid] here?
The IC50 was < 100 nM.

For O=C(O)c1[nH]nnc1Sc1ccc(-c2ccc(OC(F)(F)F)cc2)cc1 [Compound 16, 4-((4′-(trifluoromethoxy)-[1,1′-biphenyl]-4-yl)thio)-1H-1,2,3-triazole-5-carboxylic acid], which IC50 is on record?
The IC50 was < 100 nM.

With COC(=O)c1[nH]nnc1Sc1nc(-c2ccc(Cl)c(Cl)c2)cs1 [Compound 17, methyl 4-((4-(3,4-dichlorophenyl)thiazol-2-yl)thio)-1H-1,2,3-triazole-5-carboxylate] as the compound, how does the IC50 read?
Its IC50 is > 10000 nM.

O=C(O)c1[nH]nnc1Sc1nc(-c2ccc(OC3CC3)c(Cl)c2)cs1 [Compound 18, 4-((4-(3-chloro-4-cyclopropoxyphenyl)thiazol-2-yl)thio)-1H-1,2,3-triazole-5-carboxylic acid] was tested. Which IC50 did it give?
Its IC50 is < 100 nM.

O=C(OC1CC1)c1[nH]nnc1Sc1nc(-c2ccc(Cl)c(Cl)c2)cs1 [Compound 19, cyclopropyl 4-((4-(3,4-dichlorophenyl)thiazol-2-yl)thio)-1H-1,2,3-triazole-5-carboxylate] was tested. Which IC50 did it give?
The IC50 was > 10000 nM.

With O=C(O)c1[nH]nnc1Sc1cccc(-c2ccc(Cl)c(Cl)c2)n1 [Compound 20, 4-((6-(3,4-dichlorophenyl)pyridin-2-yl)thio)-1H-1,2,3-triazole-5-carboxylic acid] as the compound, how does the IC50 read?
The IC50 was < 100 nM.

O=C(O)c1[nH]nnc1Sc1ccc(-c2ccc(Cl)c(Cl)c2)cc1 [Compound 21, 4-((3′,4′-dichloro-[1,1′-biphenyl]-4-yl)thio)-1H-1,2,3-triazole-5-carboxylic acid] was tested. Which IC50 did it give?
The IC50 was < 100 nM.

For O=C(O)c1[nH]nnc1Sc1ccc(-c2ccc(Cl)cc2Cl)cc1 [Compound 22, 4-((2′,4′-dichloro-[1,1′-biphenyl]-4-yl)thio)-1H-1,2,3-triazole-5-carboxylic acid], which IC50 is on record?
Its IC50 is < 100 nM.

For COc1cc(-c2nc(Sc3nn[nH]c3C(=O)O)cs2)ccc1Cl [Compound 23, 4-((2-(4-chloro-3-methoxyphenyl)thiazol-4-yl)thio)-1H-1,2,3-triazole-5-carboxylic acid], which IC50 is on record?
The IC50 was < 100 nM.

Which IC50 does the source give for CC(C)Oc1cc(-c2nc(Sc3nn[nH]c3C(=O)O)cs2)ccc1Cl [Compound 24, 4-((2-(4-chloro-3-isopropoxyphenyl)thiazol-4-yl)thio)-1H-1,2,3-triazole-5-carboxylic acid] here?
Its IC50 is < 100 nM.

Which IC50 does the source give for COc1ccc(Cn2nnc(C(=O)O)c2Sc2csc(-c3ccc(OC)c(Cl)c3)n2)cc1 [Compound 25-1, 5-((2-(3-chloro-4-methoxyphenyl)thiazol-4-yl)thio)-1-(4-methoxybenzyl)-1H-1,2,3-triazole-4-carboxylic acid] here?
Its IC50 is > 10000 nM.

Same assay, conditions: Table 4; read-out: Range (range of IC50 values calculated from the enzymatic assays)

With CCCC(O)(CC)Cn1ccc(-c2ccc([C@H]3CC[C@H](Oc4nn[nH]c4C(=O)O)CC3)cc2)n1 (relative stereo) [Example 458, 4-(((trans)-4-(4-(1-(2-ethyl-2-hydroxypentyl)-1H-pyrazol-3-yl)phenyl)cyclohexyl)oxy)-1H-1,2,3-triazole-5-carboxylic acid] as the compound, how does the IC50 read?
Its IC50 is < 100 nM.

How did the IC50 turn out when CCCC(O)(CC)Cn1nccc1-c1ccc([C@H]2CC[C@H](Oc3nn[nH]c3C(=O)O)CC2)cc1 (relative stereo) [Example 470, 4-(((trans)-4-(4-(1-(2-ethyl-2-hydroxypentyl)-1H-pyrazol-5-yl)phenyl)cyclohexyl)oxy)-1H-1,2,3-triazole-5-carboxylic acid] was run?
Its IC50 is < 100 nM.

How did the IC50 turn out when CCC(Cc1cc(-c2ccc([C@H]3CC[C@H](Oc4nn[nH]c4C(=O)O)CC3)cc2)[nH]n1)OC (relative stereo) [Example 475, 4-(((trans)-4-(4-(3-(2-methoxybutyl)-1H-pyrazol-5-yl)phenyl)cyclohexyl)oxy)-1H-1,2,3-triazole-5-carboxylic acid] was run?
The IC50 was < 100 nM.

For O=C(O)c1[nH]nnc1O[C@H]1CC[C@H](c2ccc(-c3ccnn3[C@H]3CCCC[C@@H]3O)cc2)CC1 (relative stereo) [Example 476, 4-(((trans)-4-(4-(1-((1S,2S)-2-hydroxycyclohexyl)-1H-pyrazol-5-yl)phenyl)cyclohexyl)oxy)-1H-1,2,3-triazole-5-carboxylic acid], which IC50 is on record?
Its IC50 is < 100 nM.

O=C(O)c1[nH]nnc1O[C@H]1CC[C@H](c2ccc(OC[C@H]3CCC[C@H](CO)C3)cc2)CC1 (relative stereo) [Example 483, 4-(((trans)-4-(4-(((trans)-3-(hydroxymethyl)cyclohexyl)methoxy)phenyl)cyclohexyl)oxy)-1H-1,2,3-triazole-5-carboxylic acid] was tested. Which IC50 did it give?
Its IC50 is < 100 nM.
